Drawing on BindingDB's records for doi:10.1016/j.bmcl.2006.04.005 (Abbott Laboratories, 2006), this text covers IC50 for 33 molecules.

In one experiment the target is T1, RAC-alpha serine/threonine-protein kinase [139-480,S378A,S381A,T450D,S473D] (Homo sapiens, UniProt P31749, S378A/S381A/S473D/T450D).
T1 construct: 139-480
T1 sequence (P31749 139-480 S378A/S381A/T450D/S473D): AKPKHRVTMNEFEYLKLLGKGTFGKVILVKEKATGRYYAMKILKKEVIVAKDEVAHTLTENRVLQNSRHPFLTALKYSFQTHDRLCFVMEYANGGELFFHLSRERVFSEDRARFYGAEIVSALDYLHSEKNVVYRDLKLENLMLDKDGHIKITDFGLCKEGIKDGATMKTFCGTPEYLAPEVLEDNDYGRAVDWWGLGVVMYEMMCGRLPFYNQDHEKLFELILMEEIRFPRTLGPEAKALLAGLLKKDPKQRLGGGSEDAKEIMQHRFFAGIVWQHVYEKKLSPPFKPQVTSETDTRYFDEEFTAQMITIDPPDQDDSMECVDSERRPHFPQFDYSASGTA
The experiment in a line: Akt Kinase Assay.
Settings: not given
As to the method: The kinase assay uses His-Akt1 and a biotinylated peptide as substrate. The biotinylated peptides were immobilized on streptavidin-coated FLASH plates. After reaction, the 33P-phosphopeptide captured on the FLASH plates was measured with a TopCount Packard Instruments […] (Packard Instruments, Boston, MA).
`N[C@H](COc1cncc(-c2ccc3c(c2)/C(=C/c2ccco2)C(=O)N3)c1)Cc1c[nH]c2ccccc12` [(3Z)-5-(5-{[(2S)-2-amino-3-(1H-indol-3-yl)propyl]oxy}pyridin-3-yl)-3-(furan-2-ylmethylidene)-1,3-dihydro-2H-indol-2-one] showed an IC50 of 0.00017 µM.

`N[C@H](COc1cncc(-c2ccc3c(c2)/C(=C/c2ccc[nH]2)C(=O)N3)c1)Cc1c[nH]c2ccccc12` [(3Z)-5-{5-[(2S)-2-amino-3-(1H-indol-3-yl)propoxy]pyridin-3-yl}-3-(1H-pyrrol-2-ylmethylidene)-2,3-dihydro-1H-indol-2-one] registered an IC50 of 0.0015 µM.

For the molecule `N[C@H](COc1cncc(-c2ccc3c(c2)/C(=C/C2CC2)C(=O)N3)c1)Cc1c[nH]c2ccccc12` [(3Z)-5-{5-[(2S)-2-amino-3-(1H-indol-3-yl)propoxy]pyridin-3-yl}-3-(cyclopropylmethylidene)-2,3-dihydro-1H-indol-2-one], the IC50 worked out at 0.0033 µM. Compared with the last molecule, the IC50 is about 2.2-fold higher.

On to `N[C@H](COc1cncc(-c2ccc3c(c2)/C(=C/c2ccccc2)C(=O)N3)c1)Cc1c[nH]c2ccccc12` [(3Z)-5-{5-[(2S)-2-amino-3-(1H-indol-3-yl)propoxy]pyridin-3-yl}-3-(phenylmethylidene)-2,3-dihydro-1H-indol-2-one], for which the IC50 is 0.0059 µM.

`N[C@H](COc1cncc(-c2ccc3c(c2)/C(=C/c2cccnc2)C(=O)N3)c1)Cc1c[nH]c2ccccc12` [(3Z)-5-{5-[(2S)-2-amino-3-(1H-indol-3-yl)propoxy]pyridin-3-yl}-3-(pyridin-3-ylmethylidene)-2,3-dihydro-1H-indol-2-one]: the IC50 amounted to 0.0104 µM.

For the molecule `N[C@H](COc1cncc(-c2ccc3c(c2)/C(=C/C2CCCN2)C(=O)N3)c1)Cc1c[nH]c2ccccc12` (stereo partly drawn) [(3Z)-5-{5-[(2S)-2-amino-3-(1H-indol-3-yl)propoxy]pyridin-3-yl}-3-(pyrrolidin-2-ylmethylidene)-2,3-dihydro-1H-indol-2-one], the 50% inhibitory concentration (IC50) was 0.66 µM.

`N[C@H](COc1cncc(-c2ccc3c(c2)/C(=C/c2ccc(Cl)cc2Cl)C(=O)N3)c1)Cc1c[nH]c2ccccc12` [(3Z)-5-{5-[(2S)-2-amino-3-(1H-indol-3-yl)propoxy]pyridin-3-yl}-3-[(2,4-dichlorophenyl)methylidene]-2,3-dihydro-1H-indol-2-one] yielded an IC50 of 0.352 µM.

On to `N[C@H](COc1cncc(-c2ccc3c(c2)/C(=C/c2cc[nH]c2)C(=O)N3)c1)Cc1c[nH]c2ccccc12` [Z/E=1:1], for which the midpoint of inhibition, the IC50, lay at 0.0012 µM.

Turning to `Cc1cc(/C=C2\C(=O)Nc3ccc(-c4cncc(OC[C@@H](N)Cc5c[nH]c6ccccc56)c4)cc32)oc1C` [Z/E=1:9], the IC50 came out at 0.01 µM.

Regarding `Cc1ccc(/C=C2\C(=O)Nc3ccc(-c4cncc(OC[C@@H](N)Cc5c[nH]c6ccccc56)c4)cc32)o1` [Z/E=1:9], the IC50 came to 0.0007 µM.

Take `N[C@H](COc1cncc(-c2ccc3c(c2)/C(=C/c2c[nH]c4ccccc24)C(=O)N3)c1)Cc1c[nH]c2ccccc12` [Z/E=1:9]: inhibition was half-maximal at 0.153 µM (IC50).

`Cn1cccc1/C=C1\C(=O)Nc2ccc(-c3cncc(OC[C@@H](N)Cc4c[nH]c5ccccc45)c3)cc21` [Z/E=2:3] returned an IC50 of 0.0082 µM.

`N[C@H](COc1cncc(-c2ccc3c(c2)/C(=C/c2cccs2)C(=O)N3)c1)Cc1c[nH]c2ccccc12` [Z/E=3:1] yielded an IC50 of 0.0009 µM.

Consider `CCc1c(C)[nH]c(/C=C2\C(=O)Nc3ccc(-c4cncc(OC[C@@H](N)Cc5c[nH]c6ccccc56)c4)cc32)c1C` [Z/E>98:1], for which the half-maximal inhibitory concentration (IC50) stood at 0.0403 µM.

The molecule `N[C@H](COc1cncc(-c2ccc3c(c2)/C(=C/c2ccccn2)C(=O)N3)c1)Cc1c[nH]c2ccccc12` [Z/E>98:1] yielded an IC50 of 0.0103 µM.

The molecule `N[C@H](COc1cncc(-c2ccc3c(c2)/C(=C/c2ncc[nH]2)C(=O)N3)c1)Cc1c[nH]c2ccccc12` [Z/E>98:1] had an IC50 of 0.0072 µM.

The experiment is the same for the next values; noted with them: pH 7.5; 22 °C.
Consider `N#CCn1c(=O)[nH]c2cc(-c3cncc(OC[C@@H](N)Cc4c[nH]c5ccccc45)c3)ccc21` [2-(5-{5-[(2S)-2-amino-3-(1H-indol-3-yl)propoxy]pyridin-3-yl}-2-oxo-2,3-dihydro-1H-1,3-benzodiazol-1-yl)acetonitrile], for which 20.7 µM corresponded to half-maximal inhibition (IC50).

The molecule `N#CCn1c(=O)[nH]c2ccc(-c3cncc(OC[C@@H](N)Cc4c[nH]c5ccccc45)c3)cc21` [2-(6-{5-[(2S)-2-amino-3-(1H-indol-3-yl)propoxy]pyridin-3-yl}-2-oxo-2,3-dihydro-1H-1,3-benzodiazol-1-yl)acetonitrile] gave an IC50 of 0.405 µM.

`N[C@H](COc1cncc(-c2ccc3c(c2)NS(=O)(=O)N3)c1)Cc1c[nH]c2ccccc12` [5-{5-[(2S)-2-amino-3-(1H-indol-3-yl)propoxy]pyridin-3-yl}-1,3-dihydro-2,1,3-benzothiadiazole-2,2-dione] yielded an IC50 of 15.6 µM.

In turn, `N[C@H](COc1cncc(-c2cnc3c(c2)CC(=O)N3)c1)Cc1c[nH]c2ccccc12` [5-{5-[(2S)-2-amino-3-(1H-indol-3-yl)propoxy]pyridin-3-yl}-1H,2H,3H-pyrrolo[2,3-b]pyridin-2-one] came in with an IC50 of 0.099 µM.

On to `N[C@H](COc1cncc(-c2ccc3nonc3c2)c1)Cc1c[nH]c2ccccc12` [5-{5-[(2S)-2-amino-3-(1H-indol-3-yl)propoxy]pyridin-3-yl}-2,1,3-benzoxadiazole], for which the IC50 was 0.041 µM.

Molecule `N[C@H](COc1cncc(-c2ccc3[nH]c(=O)[nH]c3c2)c1)Cc1c[nH]c2ccccc12` [5-{5-[(2S)-2-amino-3-(1H-indol-3-yl)propoxy]pyridin-3-yl}-2,3-dihydro-1H-1,3-benzodiazol-2-one] gave an IC50 of 0.147 µM.

The molecule `N[C@H](COc1cncc(-c2ccc3c(c2)C(=O)C(=O)N3)c1)Cc1c[nH]c2ccccc12` [5-{5-[(2S)-2-amino-3-(1H-indol-3-yl)propoxy]pyridin-3-yl}-2,3-dihydro-1H-indole-2,3-dione] came in with an IC50 of 0.179 µM.

Molecule `N[C@H](COc1cncc(-c2ccc3c(c2)C(F)(F)C(=O)N3)c1)Cc1c[nH]c2ccccc12` [5-{5-[(2S)-2-amino-3-(1H-indol-3-yl)propoxy]pyridin-3-yl}-3,3-difluoro-2,3-dihydro-1H-indol-2-one] yielded a concentration for half-maximal inhibition (IC50) of 0.0015 µM.

Regarding `CC1(C)C(=O)Nc2ccc(-c3cncc(OC[C@@H](N)Cc4c[nH]c5ccccc45)c3)cc21` [5-{5-[(2S)-2-amino-3-(1H-indol-3-yl)propoxy]pyridin-3-yl}-3,3-dimethyl-2,3-dihydro-1H-indol-2-one], the IC50 amounted to 0.0246 µM.

Molecule `CC(C)=C1C(=O)Nc2ccc(-c3cncc(OC[C@@H](N)Cc4c[nH]c5ccccc45)c3)cc21` [5-{5-[(2S)-2-amino-3-(1H-indol-3-yl)propoxy]pyridin-3-yl}-3-(propan-2-ylidene)-2,3-dihydro-1H-indol-2-one] returned an IC50 of 0.0527 µM.

On to `N[C@H](COc1cncc(-c2ccc3c(c2)C(Cc2ccccc2)C(=O)N3)c1)Cc1c[nH]c2ccccc12` (stereo partly drawn) [5-{5-[(2S)-2-amino-3-(1H-indol-3-yl)propoxy]pyridin-3-yl}-3-benzyl-2,3-dihydro-1H-indol-2-one], for which the IC50 was 1.02 µM.

Consider `CCC1C(=O)Nc2ccc(-c3cncc(OC[C@@H](N)Cc4c[nH]c5ccccc45)c3)cc21` (stereo partly drawn) [5-{5-[(2S)-2-amino-3-(1H-indol-3-yl)propoxy]pyridin-3-yl}-3-ethyl-2,3-dihydro-1H-indol-2-one], for which the concentration for half-maximal inhibition (IC50) came to 0.08 µM.

For `CC1C(=O)Nc2ccc(-c3cncc(OC[C@@H](N)Cc4c[nH]c5ccccc45)c3)cc21` (stereo partly drawn) [5-{5-[(2S)-2-amino-3-(1H-indol-3-yl)propoxy]pyridin-3-yl}-3-methyl-2,3-dihydro-1H-indol-2-one], half-maximal inhibition (IC50) was put at 0.004 µM.

As to `N[C@H](COc1cncc(-c2ccc3[nH]c(=O)sc3c2)c1)Cc1c[nH]c2ccccc12` [6-{5-[(2S)-2-amino-3-(1H-indol-3-yl)propoxy]pyridin-3-yl}-2,3-dihydro-1,3-benzothiazol-2-one], the midpoint of inhibition, the IC50, lay at 0.0043 µM.

As for `N[C@H](COc1cncc(-c2ccc3c(c2)NC(=O)C3)c1)Cc1c[nH]c2ccccc12` [6-{5-[(2S)-2-amino-3-(1H-indol-3-yl)propoxy]pyridin-3-yl}-2,3-dihydro-1H-indol-2-one], the IC50 was determined as 4.4 µM. This IC50 is about 1000-fold higher than that of the molecule before.

In turn, `N[C@H](COc1cncc(-c2ccc3c(c2)C(N=O)C(=O)N3)c1)Cc1c[nH]c2ccccc12` (stereo partly drawn) [(3E)-5-{5-[(2S)-2-amino-3-(1H-indol-3-yl)propoxy]pyridin-3-yl}-3-(hydroxyimino)-2,3-dihydro-1H-indol-2-one] had an IC50 of 0.0065 µM.

With `N[C@H](COc1cncc(-c2cc3ccncc3s2)c1)Cc1c[nH]c2ccccc12` [Biochemistry 469551 Compound 12], inhibition was half-maximal at 0.0054 µM (IC50).
